Experimental data reported in ChEMBL document CHEMBL4017483, “Potent and selective oxytocin receptor agonists without disulfide bridges” (Bioorg Med Chem Lett, 2017).
Numbered stars: 1 amine (or outer) side, 2 acyl side, 3 side chain; on linkers, the order of the positions; unused ones are H or OH. Bridge positions count the residues as written; N and C are the ends. Square brackets hold non-standard residues; d marks the D form. Peptide text beside a SMILES is read from it. tBuAla = CC(C)(C)C[C@H](N)C(=O)O; X1 = O=C(CCC[*:2])[*:1]; Mpa = O=C(O)CCS

Key:
Vasopressin V1a receptor = Vasopressin V1a receptor (Homo sapiens, UniProt P37288); assay: Agonist activity at human V1a receptor expressed in CHO cells assessed as calcium mobilization measured after 30 mins by Fluo-4-AM dye based FLIPR assay; format: cell-based
Chain of Vasopressin V1a receptor (P37288 whole entry): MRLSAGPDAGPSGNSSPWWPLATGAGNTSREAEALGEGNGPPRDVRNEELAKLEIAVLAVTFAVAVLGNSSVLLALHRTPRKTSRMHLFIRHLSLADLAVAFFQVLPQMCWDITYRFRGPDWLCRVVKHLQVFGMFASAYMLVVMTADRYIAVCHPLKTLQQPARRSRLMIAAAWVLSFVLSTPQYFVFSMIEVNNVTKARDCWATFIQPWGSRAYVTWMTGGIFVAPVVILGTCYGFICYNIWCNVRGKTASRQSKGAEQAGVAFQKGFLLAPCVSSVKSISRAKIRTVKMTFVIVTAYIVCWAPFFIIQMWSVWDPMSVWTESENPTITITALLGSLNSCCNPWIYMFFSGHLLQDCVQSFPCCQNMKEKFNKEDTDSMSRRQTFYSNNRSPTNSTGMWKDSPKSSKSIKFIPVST

Homo sapiens [1] = organism: Homo sapiens; assay: Selectivity ratio of EC50 for human V1a receptor to EC50 for human OTR
Homo sapiens [2] = organism: Homo sapiens; assay: Selectivity ratio of EC50 for human V1b receptor to EC50 for human OTR
Vasopressin V1b receptor = target: T1, Vasopressin V1b receptor (Homo sapiens, UniProt P47901); assay: Agonist activity at human V1b receptor expressed in CHO cells assessed as calcium mobilization measured after 30 mins by Fluo-4-AM dye based FLIPR assay; format: cell-based
T1 sequence (P47901 whole entry): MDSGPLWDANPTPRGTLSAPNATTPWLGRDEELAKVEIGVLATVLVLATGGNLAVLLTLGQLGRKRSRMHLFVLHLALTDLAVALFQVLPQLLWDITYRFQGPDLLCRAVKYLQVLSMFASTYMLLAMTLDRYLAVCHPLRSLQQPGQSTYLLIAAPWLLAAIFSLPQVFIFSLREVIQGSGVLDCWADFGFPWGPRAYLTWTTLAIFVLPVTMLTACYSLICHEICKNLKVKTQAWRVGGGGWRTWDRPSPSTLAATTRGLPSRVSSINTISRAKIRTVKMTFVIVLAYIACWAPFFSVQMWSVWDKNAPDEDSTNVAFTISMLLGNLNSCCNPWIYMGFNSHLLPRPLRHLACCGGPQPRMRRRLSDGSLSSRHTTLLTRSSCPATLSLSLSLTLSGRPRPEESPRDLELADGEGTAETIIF

Oxytocin receptor = target: T2, Oxytocin receptor (Homo sapiens, UniProt P30559); assay: Agonist activity at human OTR expressed in CHO cells assessed as calcium mobilization measured after 30 mins by Fluo-4-AM dye based FLIPR assay; format: functional, cell-based
T2 sequence (P30559 whole entry): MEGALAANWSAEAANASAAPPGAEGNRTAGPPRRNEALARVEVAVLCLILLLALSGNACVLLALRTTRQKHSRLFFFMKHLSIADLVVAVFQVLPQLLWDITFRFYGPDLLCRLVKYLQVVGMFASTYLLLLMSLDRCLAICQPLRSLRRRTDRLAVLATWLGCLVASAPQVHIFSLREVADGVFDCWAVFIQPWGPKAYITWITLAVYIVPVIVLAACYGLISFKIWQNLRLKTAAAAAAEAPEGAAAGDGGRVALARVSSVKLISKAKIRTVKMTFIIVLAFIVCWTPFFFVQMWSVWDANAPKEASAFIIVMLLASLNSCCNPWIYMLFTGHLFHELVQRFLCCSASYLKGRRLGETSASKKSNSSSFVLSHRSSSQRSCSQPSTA

Structure (SMILES)	EC50 (Vasopressin V1a receptor) [nM]	Ratio EC50 (Homo sapiens [1])	Ratio EC50 (Homo sapiens [2])	EC50 (Vasopressin V1b receptor) [nM]	EC50 (Oxytocin receptor) [nM]
CC[C@H](C)[C@@H]1NC(=O)[C@H](Cc2ccc(O)cc2)NC(=O)CCSSC[C@@H](C(=O)N2CCC[C@H]2C(=O)N[C@@H](CC(C)C)C(=O)N[C@@H](CC(C)C)C(N)=O)NC(=O)[C@H](CC(N)=O)NC(=O)[C@H](CCC(N)=O)NC1=O ([Mpa]YIQNCPLL-NH2; disulfide 1-6)	> 100	> 10	> 10	> 100	1.6
CC[C@H](C)[C@@H]1NC(=O)[C@H](Cc2ccc(O)cc2)NC(=O)CCSSC[C@@H](C(=O)N2CCC[C@H]2C(=O)N[C@@H](CC(C)C)C(=O)NCC(N)=O)NC(=O)[C@H](CC(N)=O)NC(=O)[C@H](Cc2ccccc2)NC1=O ([Mpa]YIFNCPLG-NH2; disulfide 1-6)	> 100	> 4	> 4	> 100	22
CC[C@H](C)[C@@H]1NC(=O)[C@H](Cc2ccc(O)cc2)NC(=O)CCSSC[C@@H](C(=O)N2CCC[C@H]2C(=O)N[C@@H](CC(C)C)C(=O)NCC(N)=O)NC(=O)[C@H](CO)NC(=O)[C@H](CCC(N)=O)NC1=O ([Mpa]YIQSCPLG-NH2; disulfide 1-6)	> 100	> 8	> 8	> 100	12
CC[C@H](C)[C@@H]1NC(=O)[C@H](Cc2ccc(O)cc2)NC(=O)CCCSC[C@@H](C(=O)N2CCC[C@H]2C(=O)N[C@@H](CC(C)(C)C)C(=O)NCC(N)=O)NC(=O)[C@H](CC(N)=O)NC(=O)[C@H](CCC(N)=O)NC1=O (YIQNCP[tBuAla]G-NH2; linker N-5 via X1)	> 100	> 10000	> 10000	> 100	0.0065
CC[C@H](C)[C@@H]1NC(=O)[C@H](Cc2ccccc2)NC(=O)CCSSC[C@@H](C(=O)N2CCC[C@H]2C(=O)N[C@@H](CC(C)C)C(=O)NCC(N)=O)NC(=O)[C@H](CC(N)=O)NC(=O)[C@H](CCC(N)=O)NC1=O ([Mpa]FIQNCPLG-NH2; disulfide 1-6)	> 100	> 100	> 100	> 100	0.19
